Here are results for 13 compounds from patent publication US12202835B2, “Substituted aromatic ring-linked dioxinoquinazolines and dioxinoquinolines as kinase inhibitors” (BEIJING SCITECH-MQ PHARMACEUTICALS LIMITED, priority 2018, dated 2025).

Bounds are passed on as bounds.

One assay deals with Ba/F3-AXL cells. In words: Assay for inhibiting the proliferation of Ba/F3-AXL cells (CCK-8). The format is cell-based. The settings on record: 72 hours of incubation, medium with 100 ng/mL hGas6, CCK-8. On the procedure: The values were then imported into Graphpad Prism 5 software for curve fitting, and IC50 was calculated.
A further assay concerns the target c-MET kinase (Homo sapiens (Human), UniProt P08581). In words: Assay of small molecular compounds for inhibiting the activity of c-MET kinase (LANCE TR-FRET). The assay is classed as biochemical. The settings on record: read-out: CMET IC50. The method in brief:
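LANCE TR-FRET assay with c-MET at 1 nM final after a 5 min room-temperature preincubation with compound (11-point, 3-fold series, 2500–0.042 nM final, 4% DMSO). ULight-JAK-1 (Tyr1023) peptide (100 nM final) and ATP (10 μM final) reacted 60 min in the dark. Inhibition was taken relative to controls, then IC50 fitted.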

Another assay relates to Ba/F3 LMNA-NTRK1 cells. In words: Assay for inhibiting the proliferation of Ba/F3 LMNA-NTRK1 cells (CCK-8). The format is cell-based. The settings on record: Mus musculus, BaF3. The method in brief: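 Cells were seeded and cultured overnight, then treated with graded compound concentrations (final DMSO 0.25%) for 72 h. CCK-8 was added for 1–2 h at 37 °C and OD450 read. Survival was normalised to untreated and cell-free blank wells, and IC50 was fitted.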

Chain of c-MET kinase (P08581 25-1390): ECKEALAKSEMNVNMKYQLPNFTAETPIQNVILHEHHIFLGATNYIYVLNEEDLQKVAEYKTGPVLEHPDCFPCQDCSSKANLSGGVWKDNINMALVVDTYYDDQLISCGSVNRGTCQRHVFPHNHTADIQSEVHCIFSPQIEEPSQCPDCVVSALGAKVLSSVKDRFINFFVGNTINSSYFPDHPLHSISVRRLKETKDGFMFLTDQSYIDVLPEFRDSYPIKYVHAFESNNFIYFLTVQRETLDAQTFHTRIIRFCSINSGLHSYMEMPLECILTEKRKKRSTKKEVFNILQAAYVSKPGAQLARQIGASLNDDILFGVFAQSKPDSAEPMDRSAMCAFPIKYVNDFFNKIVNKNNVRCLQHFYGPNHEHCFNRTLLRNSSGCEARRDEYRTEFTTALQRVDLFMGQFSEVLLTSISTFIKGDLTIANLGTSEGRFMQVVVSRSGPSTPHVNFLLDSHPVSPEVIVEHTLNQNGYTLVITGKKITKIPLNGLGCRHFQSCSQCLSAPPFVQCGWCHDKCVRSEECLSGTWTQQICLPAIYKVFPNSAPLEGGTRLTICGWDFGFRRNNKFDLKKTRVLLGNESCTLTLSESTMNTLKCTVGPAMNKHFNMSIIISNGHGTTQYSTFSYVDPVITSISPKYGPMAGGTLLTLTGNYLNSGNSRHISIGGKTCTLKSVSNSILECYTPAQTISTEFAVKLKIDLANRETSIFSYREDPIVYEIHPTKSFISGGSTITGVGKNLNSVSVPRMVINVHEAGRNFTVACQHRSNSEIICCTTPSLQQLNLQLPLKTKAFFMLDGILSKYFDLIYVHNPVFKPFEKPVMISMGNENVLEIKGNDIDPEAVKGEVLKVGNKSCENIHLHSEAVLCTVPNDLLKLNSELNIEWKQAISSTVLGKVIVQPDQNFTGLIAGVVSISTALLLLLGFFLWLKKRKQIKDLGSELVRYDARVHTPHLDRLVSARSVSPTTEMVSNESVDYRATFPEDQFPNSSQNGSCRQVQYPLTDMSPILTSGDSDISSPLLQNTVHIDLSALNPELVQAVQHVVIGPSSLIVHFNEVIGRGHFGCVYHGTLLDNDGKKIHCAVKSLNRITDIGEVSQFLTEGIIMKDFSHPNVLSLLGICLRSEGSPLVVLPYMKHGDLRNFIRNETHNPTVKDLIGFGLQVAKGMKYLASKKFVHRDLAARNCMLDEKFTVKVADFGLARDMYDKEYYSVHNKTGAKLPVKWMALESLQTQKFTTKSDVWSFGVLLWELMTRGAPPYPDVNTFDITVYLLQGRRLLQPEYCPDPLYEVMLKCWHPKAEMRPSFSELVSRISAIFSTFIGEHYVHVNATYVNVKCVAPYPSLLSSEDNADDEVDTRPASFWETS

For `CC(C)n1cc(C(=O)Nc2ccc(Oc3ccnc4cc(OCCCN5CCS(=O)(=O)CC5)c5c(c34)OCCO5)c(F)c2)c(=O)n(-c2ccc(F)cc2)c1=O` [Example 76, N-(3-fluoro-4-((5-(3-(1,1-dioxidothiomorpholino)propoxy)-2,3-dihydro-[1,4]dioxino[2,3-f]quinolin-10-yl)oxy)phenyl)-3-(4-fluorophenyl)-1-isopropyl-2,4-dioxo-1,2,3,4-tetrahydropyrimidine-5-carboxamide], the IC50 in the assay with Ba/F3-AXL cells is below 50 nM; at c-MET kinase it was 50 to 500 nM; in the assay with Ba/F3 LMNA-NTRK1 cells, below 50 nM.
For the compound `CC(=O)N1CCN(CCCOc2cc3nccc(Oc4ccc(NC(=O)c5cn(C(C)C)c(=O)n(-c6ccc(F)cc6)c5=O)cc4F)c3c3c2OCCO3)CC1` [Example 75, N-(3-fluoro-4-((5-(3-(4-acetylpiperazin-1-yl)propoxy)-2,3-dihydro-[1,4]dioxino[2,3-f]quinolin-10-yl)oxy)phenyl)-3-(4-fluorophenyl)-1-isopropyl-2,4-dioxo-1,2,3,4-tetrahydropyrimidine-5-carboxamide], the figures for the IC50 on c-MET kinase and with Ba/F3 LMNA-NTRK1 cells were at most 50 nM and below 50 nM, respectively.
As to `CCOc1ccn(-c2ccc(F)cc2)c(=O)c1C(=O)Nc1ccc(Oc2ccnc3cc(OCC(C)C)c4c(c23)OCCO4)c(F)c1` [Example 58, N-(4-((5-(isobutyloxy)-2,3-dihydro-[1,4]dioxino[2,3-f]quinolin-10-yl)oxy)-3-fluorophenyl)-4-ethoxy-1-(4-fluorophenyl)-2-oxo-1,2-dihydropyridine-3-carboxamide], the concentration for half-maximal inhibition (IC50) in the assay with Ba/F3-AXL cells was below 50 nM; on c-MET kinase it was at most 50 nM.
For `CC(C)n1cc(C(=O)Nc2ccc(Oc3ccnc4cc(OCCCN5CCCC5)c5c(c34)OCCO5)c(F)c2)c(=O)n(-c2ccc(F)cc2)c1=O` [Example 77, N-(3-fluoro-4-((5-(3-(pyrrolidin-1-yl)propoxy)-2,3-dihydro-[1,4]dioxino[2,3-f]quinolin-10-yl)oxy)phenyl)-3-(4-fluorophenyl)-1-isopropyl-2,4-dioxo-1,2,3,4-tetrahydropyrimidine-5-carboxamide], the results for the half-maximal inhibitory concentration (IC50) with Ba/F3-AXL cells, on c-MET kinase and in the assay on Ba/F3 LMNA-NTRK1 cells were below 50 nM, at most 50 nM and below 50 nM, respectively.
As for `CC(C)n1cc(C(=O)Nc2ccc(Oc3ccnc4cc(OCCCO)c5c(c34)OCCO5)c(F)c2)c(=O)n(-c2ccc(F)cc2)c1=O` [Example 79, N-(3-fluoro-4-((5-(3-hydroxypropoxy)-2,3-dihydro-[1,4]dioxino[2,3-f]quinolin-10-yl)oxy)phenyl)-3-(4-fluorophenyl)-1-isopropyl-2,4-dioxo-1,2,3,4-tetrahydropyrimidine-5-carboxamide], the figures for the 50% inhibitory concentration (IC50) on c-MET kinase and in the assay with Ba/F3 LMNA-NTRK1 cells were at most 50 nM and below 50 nM, respectively.
As for `Cn1cc(C(=O)Nc2ccc(Oc3ccnc4cc(OC5CCOC5)c5c(c34)OCCO5)c(F)c2)c(=O)n(-c2ccc(F)cc2)c1=O` (stereo not shown) [Example 90, N-(3-fluoro-4-((5-((tetrahydrofuran-3-yl)oxy)-2,3-dihydro-[1,4]dioxino[2,3-f]quinolin-10-yl)oxy)phenyl)-3-(4-fluorophenyl)-1-methyl-2,4-dioxo-1,2,3,4-tetrahydropyrimidine-5-carboxamide], the half-inhibitory concentration (IC50) in the assay with Ba/F3-AXL cells is below 50 nM; on c-MET kinase it was at most 50 nM; with Ba/F3 LMNA-NTRK1 cells, below 50 nM.
For `CC(C)n1cc(C(=O)Nc2ccc(Oc3ccnc4cc(OCCCN5CCC(C)(C)CC5)c5c(c34)OCCO5)c(F)c2)c(=O)n(-c2ccc(F)cc2)c1=O` [Example 92, N-(3-fluoro-4-((5-(3-(4,4-dimethylpiperidin-1-yl)propoxy)-2,3-dihydro-[1,4]dioxino[2,3-f]quinolin-10-yl)oxy)phenyl)-3-(4-fluorophenyl)-1-isopropyl-2,4-dioxo-1,2,3,4-tetrahydropyrimidine-5-carboxamide], the IC50 with Ba/F3-AXL cells is below 50 nM; on c-MET kinase it was 50 to 500 nM; in the assay with Ba/F3 LMNA-NTRK1 cells it was 50 to 200 nM.
Turning to `CC(C)n1cc(C(=O)Nc2ccc(Oc3ccnc4cc(OCCO)c5c(c34)OCCO5)c(F)c2)c(=O)n(-c2ccc(F)cc2)c1=O` [Example 78, N-(3-fluoro-4-((5-(2-hydroxyethoxy)-2,3-dihydro-[1,4]dioxino[2,3-f]quinolin-10-yl)oxy)phenyl)-3-(4-fluorophenyl)-1-isopropyl-2,4-dioxo-1,2,3,4-tetrahydropyrimidine-5-carboxamide], the 50% inhibitory concentration (IC50) in the assay on Ba/F3-AXL cells was below 50 nM; at c-MET kinase, at most 50 nM; in the assay with Ba/F3 LMNA-NTRK1 cells it was below 50 nM.
In the case of `COCCOc1cc2nccc(Oc3ccc(NC(=O)c4cn(C(C)C)c(=O)n(-c5ccc(F)cc5)c4=O)cc3F)c2c2c1OCCO2` [Example 43, N-(3-fluoro-4-((5-(2-methoxyethoxy)-2,3-dihydro-[1,4]dioxino[2,3-f]quinolin-10-yl)oxy)phenyl)-3-(4-fluorophenyl)-1-isopropyl-2,4-dioxo-1,2,3,4-tetrahydropyrimidine-5-carboxamide], the IC50 in the assay on Ba/F3-AXL cells was below 50 nM; at c-MET kinase, at most 50 nM; with Ba/F3 LMNA-NTRK1 cells, below 50 nM.
`CC(C)Oc1cc2nccc(Oc3ccc(NC(=O)c4cn(C)c(=O)n(-c5ccc(F)cc5)c4=O)cc3F)c2c2c1OCCO2` [Example 88, N-(3-fluoro-4-((5-isopropoxy-2,3-dihydro-[1,4]dioxino[2,3-f]quinolin-10-yl)oxy)phenyl)-3-(4-fluorophenyl)-1-methyl-2,4-dioxo-1,2,3,4-tetrahydropyrimidine-5-carboxamide]: the IC50 with Ba/F3-AXL cells was below 50 nM; at c-MET kinase, at most 50 nM.
Turning to `Cn1cc(C(=O)Nc2ccc(Oc3ccnc4cc(OC5CCOCC5)c5c(c34)OCCO5)c(F)c2)c(=O)n(-c2ccc(F)cc2)c1=O` [Example 91, N-(3-fluoro-4-((5-((tetrahydropyran-4-yl)oxy)-2,3-dihydro-[1,4]dioxino[2,3-f]quinolin-10-yl)oxy)phenyl)-3-(4-fluorophenyl)-1-methyl-2,4-dioxo-1,2,3,4-tetrahydropyrimidine-5-carboxamide], the IC50 with Ba/F3-AXL cells is below 50 nM; on c-MET kinase, at most 50 nM; with Ba/F3 LMNA-NTRK1 cells, below 50 nM.
On to `CCOc1ccn(-c2ccc(F)cc2)c(=O)c1C(=O)Nc1ccc(Oc2ccnc3cc(OCC4CC4)c4c(c23)OCCO4)c(F)c1` [Example 59, N-(4-((5-(cyclopropylmethoxy)-2,3-dihydro-[1,4]dioxino[2,3-f]quinolin-10-yl)oxy)-3-fluorophenyl)-4-ethoxy-1-(4-fluorophenyl)-2-oxo-1,2-dihydropyridine-3-carboxamide], for which the half-maximal inhibitory concentration (IC50) in the assay with Ba/F3-AXL cells is below 50 nM; on c-MET kinase, at most 50 nM.
Take `CC(C)n1cc(C(=O)Nc2ccc(Oc3ccnc4cc(OCCCN5CCC(C)(N)CC5)c5c(c34)OCCO5)c(F)c2)c(=O)n(-c2ccc(F)cc2)c1=O` [Example 93, N-(3-fluoro-4-((5-(3-(4-amino-4-methylpiperidin-1-yl)propoxy)-2,3-dihydro-[1,4]dioxino[2,3-f]quinolin-10-yl)oxy)phenyl)-3-(4-fluorophenyl)-1-isopropyl-2,4-dioxo-1,2,3,4-tetrahydropyrimidine-5-carboxamide]: the figures for the IC50 in the assay on Ba/F3-AXL cells, on c-MET kinase and in the assay on Ba/F3 LMNA-NTRK1 cells were below 50 nM, at most 50 nM and 200 to 1000 nM, respectively.

As usually defined, the IC50 is the concentration that inhibits the measured activity by half.
